One molecule from PMC8805583, “Discovery of Herbacetin as a Novel SGK1 Inhibitor to Alleviate Myocardial Hypertrophy” (Advanced Science, 2021) can be followed below.

In series [1] the target is T1, SGK1 (Homo sapiens, UniProt O00141).
T1 sequence (O00141 1-431): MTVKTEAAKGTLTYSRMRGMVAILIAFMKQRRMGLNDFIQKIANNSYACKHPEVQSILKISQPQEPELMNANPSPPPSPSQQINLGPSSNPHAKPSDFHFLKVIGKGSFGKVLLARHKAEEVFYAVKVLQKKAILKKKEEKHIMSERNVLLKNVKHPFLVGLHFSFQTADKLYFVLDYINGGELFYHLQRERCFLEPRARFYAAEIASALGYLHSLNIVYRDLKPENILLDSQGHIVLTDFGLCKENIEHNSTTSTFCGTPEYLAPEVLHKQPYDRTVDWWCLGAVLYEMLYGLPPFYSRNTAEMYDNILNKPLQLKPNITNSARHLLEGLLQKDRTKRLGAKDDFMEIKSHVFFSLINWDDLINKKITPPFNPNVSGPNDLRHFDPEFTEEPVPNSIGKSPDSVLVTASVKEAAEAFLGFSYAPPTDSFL
The series can be described thus: KinaseProfiler Assay, AGC kinase panel. The class given is biochemical. More on the design: purchased Eurofins Discovery (KinaseProfiler Service). As to conditions: HBT 10 µmol; normalized by positive inhibitors. The source says: 20 structurally related flavonoids of HBT were collected, which differ in the number and position of —OH groups, and examined for their effects on SGK1 activity. Based on the docking prediction, the —OH group at the C‐4’ position of HBT was required for the interaction with the key SGK1 residue D177. Therefore, the 20 flavonoids were divided into two classes according to the presence or absence of an —OH group at C‐4’ (Figure 4B). At both tested concentrations, flavonoids with an —OH group at C‐4’ (class A) inhibited SGK1 more than those without an —OH group at C‐4’ (class B) (Figure 4C). The IC50 of each compound is listed in Figure 4D; and Figure S6 (Supporting Information). […] Conversely, the absence of an ‐OH group at C‐8 led to a greater than 10‐fold reduction in flavonoid SGK1 inhibitory activity, as shown by the performance of A1 or A4. […] The inhibitory activity of HBT (10 µmol) against 28 human AGC kinases was tested by KinaseProfiler Assay (Eurofins Discovery). The percentage of HBT's inhibitory activity against each kinase was normalized by the respective positive inhibitors of AGC kinases.
The initial crystal structures of SGK1 (PDB entry: 3HDN, 3HDM, and 2R5T) were obtained from the Protein Data Bank (PDB). The prepared inhibitors were then docked by Glide with the extra precision (XP) scoring mode to estimate the binding affinity for each protein–ligand complex. […]

The subject of another series is ISO mice. Nature of the series: ISO-induced cardiac hypertrophy in mice. Format: in vivo. How it is done:
Finally, we assessed the cardioprotective effect of HBT in mice infused with the hypertrophic agonist isoproterenol (ISO). Mice were challenged with ISO for 21 days via subcutaneous injection and then were administered with 10 mg kg^−1 of HBT once per day until the mice were sacrificed (Figure 7A).
For isoproterenol (ISO)‐mediated cardiac hypertrophy, mice were randomly divided into 3 groups, control group (Ctrl), ISO group and ISO plus HBT group (HBT), 5 mg kg^−1 day^−1 ISO was given for 21 days by subcutaneous injection. The control mice were treated with 1% DMSO‐vehicle. At the same time, male C57BL/6 mice in HBT group were intraperitoneally injected with 10 mg kg^−1 d^−1 HBT diluted with a solution containing 1% DMSO and 99% saline. Echocardiography was performed on conscious mice using a Vevo 2100 system. M‐mode images of the left ventricular short axis were captured. After echocardiography evaluation, the mice were anesthetized via intraperitoneal injection of 240 mg kg^−1 pentobarbital sodium and were euthanized by excising the heart rapidly.

For series [2], the target named is T1, SGK1. Nature of the series: Cellular thermal shift assay in cell lysates. Format: binding. The source says: To identify active compounds with SGK1 inhibitory activity from Ext.R, a novel mass‐spectrometry based kinase inhibitory assay was developed. A polypeptide sequence ([…], m/z: 618.6) derived from glycogen Synthase Kinase‐3(GSK3), a known substrate of SGK1, was optimized and synthesized. We subsequently used liquid chromatography coupled with mass spectrometry (LC/MS) to detect and quantify its phosphorylation level ([…](p)FAE, m/z:658.7) (Figure 3A).^[ [26] ^] Basal level SGK1 was supplemented to each well, and the peak area of phosphorylation was measured in the presence or absence of testing compounds. […] After investigating the major chemical constituents in Ext.R (Table S3, Supporting Information), a set of compounds in Ext.R were subsequently screened for their impacts on SGK1 activity. […] The direct interaction between HBT and SGK1 was further verified by temperature‐ and dose‐dependent cellular thermal shift assays (Figure 3E,F). We further performed a direct binding assay of HBT to SGK1 by KINOMEscan assay (Eurofins Discovery).
Figure 3 Mass spectrometry‐based kinase inhibitory assay for screening SGK1 inhibitor. A) Illustration of the mass spectrometry‐based assay for screening SGK1 inhibitors. […] G) Direct binding assay of HBT to SGK1 by KINOMEscan assay (Eurofins Discovery).

In the case of `O=c1c(O)c(-c2ccc(O)cc2)oc2c(O)c(O)cc(O)c12` [HBT, herbacetin], the “inhibitory activity on SGK1” value against SGK1 [1] is 95%. Moreover, the toxicity entry in the series with ISO mice (10 mg kg−1 d−1 for 21 days) was “without causing any significant toxicity”. For the same molecule, the “left ventricular ejection fraction (EF%) and fraction shortening (FS%)” value with ISO mice (ISO 5 mg kg−1 d−1 21 days, HBT 10 mg kg−1 d−1 intraperitoneally) was “increased”. For the same molecule, in the series on ISO mice (ISO mice), the “decreased Bcl-2 and MnSOD levels” value is reported as “almost completely reversed”. The “serum NT-proBNP” value in the series with ISO mice (ISO mice, ELISA) was “decreased level”. In addition, in the series on ISO mice (ISO mice, HBT 10 mg kg−1), the “heart weight/tibial length (HW/TL)” value is listed as “reduce the HW/TL level”; the “left ventricular volume (LV Vol;d and LV Vol;s)” value was “decreased”. The “accumulation of collagen fibrosis” value with ISO mice (ISO mice, Masson's staining) is “reduced”. Also, in the series on ISO mice (ISO mice, western blot), the “expression of p-SGK1, α-SMA and Col-3” value is “reduced expression”. In the series on ISO mice (ISO mouse model), the “FoxO1 phosphorylation, STIM1 and Orai1 protein expression in heart tissue” value was “significantly decreased”; the “level of HO-1 and Nrf2 in heart tissue” value was “increased”. Moreover, the “thermal stability of SGK1, concentration-dependent cellular thermal shift assay” value on SGK1 [2] (65 °C) is “increases the thermal stability of SGK1”. Further, the “thermal stability of SGK1, temperature-dependent cellular thermal shift assay” value on SGK1 [2] (HBT 100 µmol) is “increases the thermal stability of SGK1”.
